Laboratory results taken from patent publication US20260256792A1, “TREATMENT OF CHRONIC SPONTANEOUS URTICARIA BY ADMINISTERING (R)-2-[3-[4-AMINO-3-(2-FLUORO-4-PHENOXY-PHENYL)PYRAZOLO[3,4-D]PYRIMIDIN-1-YL]PIPERIDINE-1-CARBONYL]-4-METHYL-4-[4-(OXETAN-3-YL)PIPERAZIN-1-YL]PENT-2-ENENITRILE” (priority 2023, published 2026).

Tested on: angioedema in CSU patients
Experiment: Phase 2 CSU study: angioedema activity score over 7 days (AAS7)
Format: in vivo, human
Conditions: for Non-responder n (%), AAS7 = 0 / OR (95% CI) for rilzabrutinib vs. placebo, AAS7 = 0 / RRD (%) for rilzabrutinib vs. placebo (95% CI), AAS7 = 0 / Responder n (%), AAS7 = 0: outlier removed
Excerpt: The study comprises a 12 week, randomized, double-blind, placebo-controlled, multi-center, dose-ranging efficacy and safety phase, followed by a 40 week open label extension (OLE) phase (see FIG. 1). The study consists of three phases and an optional OLE phase. […] The weekly angioedema activity score (AAS7) was proposed as a tertiary endpoint. […] Patients were to complete the AAS using the e-diary. The e-diary was to be used once daily on the same time of each day recording of participant's answers to the angioedema activity score over 7 days (AAS7) questionnaire.

[1] = 400 mg BID, Week 12, omalizumab-naïve, angioedema at baseline
[2] = 400 mg QPM, Week 1, ITT, angioedema at baseline
[3] = 400 mg QPM, Week 1, omalizumab-naïve
[4] = 400 mg QPM, Week 1, omalizumab-naïve, angioedema at baseline
[5] = 400 mg QPM, Week 2, ITT, angioedema at baseline
[6] = 400 mg QPM, Week 2, omalizumab-naïve
[7] = 400 mg QPM, Week 2, omalizumab-naïve, angioedema at baseline
[8] = 400 mg QPM, Week 3, ITT, angioedema at baseline
[9] = 400 mg QPM, Week 3, omalizumab-naïve
[10] = 400 mg QPM, Week 3, omalizumab-naïve, angioedema at baseline
[11] = 400 mg QPM, Week 4, ITT, angioedema at baseline
[12] = 400 mg QPM, Week 4, omalizumab-naïve
[13] = 400 mg QPM, Week 4, omalizumab-naïve, angioedema at baseline

What does the source list for `CC(C)(C=C(C#N)C(=O)N1CCC[C@@H](n2nc(-c3ccc(Oc4ccccc4)cc3F)c3c(N)ncnc32)C1)N1CCN(C2COC2)CC1` [rilzabrutinib, (R)-2-[3-[4-amino-3-(2-fluoro-4-phenoxy-phenyl)pyrazolo[3,4-d]pyrimidin-1-yl]piperidine-1-carbonyl]-4-methyl-4-[4-(oxetan-3-yl)piperazin-1-yl]pent-2-enenitrile]?
AAS7 Change from baseline LS Mean (SE) [1]: −41.53 (4.39); AAS7 Post-baseline Mean (SD) [1]: 11.73 (18.07); Participants with AAS7 = 0, Responder n (%) [1]: 11 (42.3) n (%); patients achieving angioedema score (AAS7) of 0 (400 mg BID, within one week of initiating treatment, omalizumab-naïve): 42.3%; AAS7 % Change difference for rilzabrutinib vs. placebo LS Mean (95% CI) [2]: −12.18 (−42.38, 18.02) %; AAS7 % Change from baseline LS Mean (SE) [2]: −32.14 (9.37) %; AAS7 Change difference for rilzabrutinib vs. placebo LS Mean (95% CI) [2]: −5.18 (−18.04, 7.67); AAS7 Change from baseline LS Mean (SE) [2]: −19.68 (3.99); AAS7 Post-baseline Mean (SD) [2]: 34.57 (21.50); Non-responder n (%), AAS7 = 0 [3]: 24 (64.9) n (%); OR (95% CI) for rilzabrutinib vs. placebo, AAS7 = 0 [3]: 1.428; RRD (%) for rilzabrutinib vs. placebo (95% CI), AAS7 = 0 [3]: 8.1 %; Responder n (%), AAS7 = 0 [3]: 13 (35.1) n (%); AAS7 % Change difference for rilzabrutinib vs. placebo LS Mean (95% CI) [4]: −14.70 (−47.27, 17.88) %; AAS7 % Change from baseline LS Mean (SE) [4]: −31.74 (9.84) %; AAS7 = 0, OR (95% CI) for rilzabrutinib vs. placebo [4]: 3.545; AAS7 = 0, RRD (%) for rilzabrutinib vs. placebo (95% CI) [4]: 9.1 %; AAS7 Change difference for rilzabrutinib vs. placebo LS Mean (95% CI) [4]: −5.57 (−19.34, 8.21); AAS7 Change from baseline LS Mean (SE) [4]: −19.33 (4.16); AAS7 Post-baseline Mean (SD) [4]: 34.85 (21.86); AAS7 % Change difference for rilzabrutinib vs. placebo LS Mean (95% CI) [5]: 4.26 (−27.23, 35.76) %; AAS7 Change from baseline LS Mean (SE) [5]: −21.54 (4.19); AAS7 Post-baseline Mean (SD) [5]: 32.95 (23.02); Non-responder n (%), AAS7 = 0 [6]: 24 (64.9) n (%); OR (95% CI) for rilzabrutinib vs. placebo, AAS7 = 0 [6]: 0.875; RRD (%) for rilzabrutinib vs. placebo (95% CI), AAS7 = 0 [6]: −3.3 %; Responder n (%), AAS7 = 0 [6]: 13 (35.1) n (%); AAS7 % Change difference for rilzabrutinib vs. placebo LS Mean (95% CI) [7]: 0.88 (−32.86, 34.63) %; AAS7 % Change from baseline LS Mean (SE) [7]: −36.33 (12.38) %; AAS7 = 0, OR (95% CI) for rilzabrutinib vs. placebo [7]: 0.514; AAS7 = 0, RRD (%) for rilzabrutinib vs. placebo (95% CI) [7]: −9.2 %; AAS7 Post-baseline Mean (SD) [7]: 33.25 (23.40); AAS7 % Change difference for rilzabrutinib vs. placebo LS Mean (95% CI) [8]: 15.17 (−24.59, 54.94) %; AAS7 % Change from baseline LS Mean (SE) [8]: −33.35 (14.94) %; AAS7 Change difference for rilzabrutinib vs. placebo LS Mean (95% CI) [8]: 2.33 (−9.09, 13.74); AAS7 Change from baseline LS Mean (SE) [8]: −21.82 (4.29); AAS7 Post-baseline Mean (SD) [8]: 32.48 (20.51); Non-responder n (%), AAS7 = 0 [9]: 25 (67.6) n (%); OR (95% CI) for rilzabrutinib vs. placebo, AAS7 = 0 [9]: 1.041; RRD (%) for rilzabrutinib vs. placebo (95% CI), AAS7 = 0 [9]: 0.9 %; Responder n (%), AAS7 = 0 [9]: 12 (32.4) n (%); AAS7 % Change difference for rilzabrutinib vs. placebo LS Mean (95% CI) [10]: 14.44 (−28.58, 57.46) %; AAS7 % Change from baseline LS Mean (SE) [10]: −33.23 (15.73) %; AAS7 = 0, Non-responder n (%) [10]: 23 (85.2) n (%); AAS7 = 0, OR (95% CI) for rilzabrutinib vs. placebo [10]: 0.686; AAS7 = 0, RRD (%) for rilzabrutinib vs. placebo (95% CI) [10]: −5.0 %; AAS7 Post-baseline Mean (SD) [10]: 32.60 (20.89); Participants with AAS7 = 0, Responder n (%) [10]: 4 (14.8) n (%); AAS7 % Change difference for rilzabrutinib vs. placebo LS Mean (95% CI) [11]: −12.88 (−48.34, 22.58) %; AAS7 % Change from baseline LS Mean (SE) [11]: −49.47 (13.21) %; AAS7 Change difference for rilzabrutinib vs. placebo LS Mean (95% CI) [11]: −2.68 (−13.70, 8.35); AAS7 Change from baseline LS Mean (SE) [11]: −25.28 (4.12); AAS7 Post-baseline Mean (SD) [11]: 29.42 (20.30); Non-responder n (%), AAS7 = 0 [12]: 23 (62.2) n (%); OR (95% CI) for rilzabrutinib vs. placebo, AAS7 = 0 [12]: 0.874; RRD (%) for rilzabrutinib vs. placebo (95% CI), AAS7 = 0 [12]: −3.0 %; Responder n (%), AAS7 = 0 [12]: 14 (37.8) n (%); AAS7 % Change difference for rilzabrutinib vs. placebo LS Mean (95% CI) [13]: −19.26 (−57.48, 18.97) %; AAS7 % Change from baseline LS Mean (SE) [13]: −49.19 (13.84) %
